Consider five compounds from EP0491041A1, “ANTIVIRAL DRUG” (NIPPON SHINYAKU COMPANY, LIMITED, priority 1989, dated 1991).

One series has as its system virus. Put plainly: Antiviral action test: screening by inhibition of cell degeneration effect (CPE) in virus-infected HeLa cells. The format is cell-based. The conditions noted are these: amount of added drug whereby the CPE became 50%, M.O.I = 0.002, culture for three days. Here is the method:
HeLa cells were subjected to subcultured by monolayer culture (Eagle's MEM-10% CS) and infected as M.O.I. (multiplicity of infection) = 0.01.
On the first day, HeLa cells were spread in a 75 cm³ flask and cultured on a one-day growth medium (Eagle's MEM-10% CS). On the second day, old medium was removed after confirming the formation of cell sheet, then M.O.I was made 0.01 PFU/cell and 0.5 ml of virus solution was added. The original virus solution was diluted with PBS-3% FCS solution. Operation of the virus inoculation was conducted by tilting for 1 hour at room temperature. After virus was inoculated on the cells, the virus-inoculated solution was removed, washed twice with 10 ml PBS and the residual virus solution was removed. Then 15 ml of maintenance medium (Eagle's MEM-1% CS) was added and cultured at 37°C for 2 days. The cells were observed from time to time and the culture was continued until cell fusion and cell rounding were confirmed. After the culture, medium was recovered which was used as a virus solution and was stored at -20°C until actual use.
The 78 cm³ flask containing HeLa cells which were subjected to a monolayer maintenance subculture was taken out, the old medium was discarded, 2-3 ml of 0.25% trypsine (Difco = 1:250)-0.02% EDTA/PBS(-) solution was added, tilted for a few seconds, the trypsine solution was removed and warmed at 37°C for 5 minutes. Then fresh medium was added, pipetted with a Komagome pipette and the cells were homogeneously dispersed.
Cells were counted using a cytometer, then fresh medium was added, diluted to make the cell concentration 5 x 10⁵ cells/ml, 2 ml of that was added to a laboratory dish of 35 mm diameter and cultured in a CO₂-incubator at 37°C for one day to prepare cell sheet.
The virus solution was diluted by a diluting solution to make diluted solutions of ten-times difference or step. The laboratory dish wherein HeLa cells were cultured on the previous day was taken out from the incubator, old medium was discarded and the cells were washed with each 2 ml of PBS twice. Properly diluted virus solution (0.2 ml) was added to each laboratory dish, subjected to a tilting at room temperature for 60 minutes immediately and virus was inoculated. Then the virus solution was removed, each 2 ml of 0.5% methylcellulose/Eagle's MEM-1% CS was added and cultured in a CO₂ incubator for 4 days.
The cultured laboratory dish was taken out from the CO₂-incubator and methylcellulose medium was removed. Then cells were washed with 2 ml of PDS, 2 ml of methanol was added, allowed to stand for 10 minutes and cells were immobilized and, at the same time, virus was sterilized. Hematoxylin dyeing solution (2 ml) was added to the laboratory dish which was immobilized with methanol, allowed to stand for about 10 minutes, washed with water and air-dried at room temperature. Since the cells destructed with virus were not dyed, plaque area was noted as a void and the plaque numbers were counted whereby virus value (PFU/ml) (Plaque forming units/ml) was measured.
HeLa cells during the subculture were dispersed with trypsine liquid-EDTA solution, 5 x 10⁵ cells/pore were embedded on a plate having 24 pores and cultured overnight at 37°C in a CO₂-incubator to prepare cell sheet.
As mentioned above, old medium was discarded, the cells were washed with PBS, the virus solution was diluted to make M.O.I = 0.002, 0.1 ml of it was added to each pore, subjected to a tilting at room temperature for 60 minutes and virus was inoculated to the cell.
Virus solution was removed from the cells after inoculation of virus, the cells were washed with 2 ml of PBS, each 1 ml of maintenance medium was added to each pore, then each 10 µl of the drug was added and the cells were cultured in a CO₂-incubator. Culture was conducted for three days.
The cells on the plate were observed under an invert microscope. Cell degeneration effect (CPE) was observed as cell fusion and making the cells round. […]

Series [1] in a line: Acute toxicity test in mice. Format: in vivo. The conditions noted are these: male mice, ddY strain, observation for one week. The procedure:
Four male mice (ddY strain; six weeks age) were used for each drug tested.
In the intraperitoneal administration, each drug was suspended in 0.5% CMC-physiological saline solution and 0.1 ml (per 10 g body weight of mouse) of the suspension was intraperitoneally given to mouse. In the case of oral administration, each drug was suspended in 0.5% CMC-physiological saline solution and 0.2 ml (per 10 g body weight of mouse) of the suspension was given orally. Observation was started soon after administration and, after observation for one week, the mice were killed by chloroform and subjected to autopsied. LD₅₀ of each drug tested was given in the following tables wherefrom it is clear that the compounds of the present invention are safe.

Values after ≈ are worked out from the molar mass of the structure shown. Some results are limits rather than exact numbers.

On to `OC[C@@H]1[C@@H](O)[C@H](O)[C@@H](O)CN1CCCCOc1ccc(Cl)cc1` [Compound No. 141, N-[4-(4-Chlorophenoxy)butyl]moranoline], for which the “EC50 (50% CPE inhibition)” value in the series with virus is 1 µg/mL (≈ 2.89 µM). Moreover, the “L D ₅₀” value in series [1] (Intraperitoneal Administration) is over 300 mg/kg; in series [1] (Oral Administration), > 5,000 mg/kg.

`CC(=CCN1C[C@H](O)[C@@H](O)[C@H](O)[C@H]1CO)c1ccc(C)cc1` [Compound No. 104, N-(gamma-Methyl-4-methylcinnamyl)moranoline]: in the series with virus, the “EC50 (50% CPE inhibition)” value turned out to be 10 µg/mL (≈ 32.5 µM). For the same compound, the “L D ₅₀” value in series [1] (Intraperitoneal Administration) was over 300 mg/kg; in series [1] (Oral Administration) it was > 5,000 mg/kg.

Regarding `CC(=CCCN1C[C@H](O)[C@@H](O)[C@H](O)[C@H]1CO)c1ccc(Oc2ccccc2)cc1` [Compound No. 115, N-[4-(4-Phenoxyphenyl)-3-pentenyl]moranoline], the “EC50 (50% CPE inhibition)” value in the series on virus is 1 µg/mL (≈ 2.5 µM). Besides, the “L D ₅₀” value in series [1] (Intraperitoneal Administration) is over 300 mg/kg; in series [1] (Oral Administration), > 5,000 mg/kg.

For `OC[C@@H]1[C@@H](O)[C@H](O)[C@@H](O)CN1CCCCc1ccc(Oc2ccccc2)cc1` [Compound No. 205, N-[4-(4-Phenoxyphenyl)butyl]moranoline], the entries for the “L D ₅₀” value in series [1] (Intraperitoneal Administration) and in series [1] (Oral Administration) were over 300 mg/kg and > 5,000 mg/kg, respectively.

Take `COc1ccc(C(C)=CCN2C[C@H](O)[C@@H](O)[C@H](O)[C@H]2CO)cc1` [Compound No. 103, N-(magga-Methyl-4-methoxycinnamyl)moranoline]: the “EC50 (50% CPE inhibition)” value in the series on virus stood at 30 µg/mL (≈ 92.8 µM). The “L D ₅₀” value in series [1] (Intraperitoneal Administration) was over 300 mg/kg; in series [1] (Oral Administration), > 5,000 mg/kg.
